Several values for one entry are separate records, joined by “and”; a condition that tells them apart may be missing. Identical values can stand only once. Toxic doses and inconclusive results are not listed.
Tested on: CD2F1 mice, L1210 leukemia ip, survival T/C
Assay: NCI In Vivo Anticancer Drug Screen. Data for tumor model L1210 Leukemia (intraperitoneal) in CD2F1 (CDF1) mice
Settings: higher = longer survival
Procedure, shortened: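 Compound-dosed mice with transplantable tumor versus matched vehicle controls; endpoint ratio T/C reported.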

[1] = endpoint: mean survival time, dose: 100.0 mg/kg/injection, schedule: Q01DX009 (ip), vehicle: saline with Tween-80
[2] = endpoint: mean survival time, dose: 100.0 mg/kg/injection, schedule: Q04DX003 (ip), vehicle: saline with Tween-80
[3] = endpoint: mean survival time, dose: 200.0 mg/kg/injection, schedule: Q01DX009 (ip), vehicle: saline with Tween-80
[4] = endpoint: mean survival time, dose: 200.0 mg/kg/injection, schedule: Q04DX003 (ip), vehicle: saline with Tween-80
[5] = endpoint: mean survival time, dose: 400.0 mg/kg/injection, schedule: Q04DX003 (ip), vehicle: saline with Tween-80
[6] = endpoint: mean survival time, dose: 100.0 mg/kg/injection, schedule: Q01DX001 (ip), vehicle: saline with Tween-80
[7] = endpoint: mean survival time, dose: 200.0 mg/kg/injection, schedule: Q01DX001 (ip), vehicle: saline with Tween-80
[8] = endpoint: mean survival time, dose: 400.0 mg/kg/injection, schedule: Q01DX001 (ip), vehicle: saline with Tween-80
[9] = endpoint: mean survival time, dose: 50.0 mg/kg/injection, schedule: Q01DX009 (ip), vehicle: saline with Tween-80
[10] = endpoint: mean survival time, dose: 100.0 mg/kg/injection, schedule: Q04DX003 (ip), vehicle: acetone
[11] = endpoint: mean survival time, dose: 100.0 mg/kg/injection, schedule: Q01DX001 (ip), vehicle: saline
[12] = endpoint: mean survival time, dose: 200.0 mg/kg/injection, schedule: Q01DX001 (ip), vehicle: saline
[13] = endpoint: mean survival time, dose: 400.0 mg/kg/injection, schedule: Q01DX001 (ip), vehicle: saline
[14] = endpoint: mean survival time, dose: 12.5 mg/kg/injection, schedule: Q04DX003 (ip), vehicle: saline with Tween-80
[15] = endpoint: mean survival time, dose: 25.0 mg/kg/injection, schedule: Q04DX003 (ip), vehicle: saline with Tween-80

O=c1[nH]cccc1O
T/C (endpoint: median survival time, dose: 50.0 mg/kg/injection, schedule: Q01DX009 (ip), vehicle: saline with Tween-80): 103 % of control and 104 % of control and 108 % of control | T/C (endpoint: median survival time, dose: 62.5 mg/kg/injection, schedule: Q01DX009 (ip), vehicle: saline with Tween-80): 102 % of control | T/C (endpoint: median survival time, dose: 66.7 mg/kg/injection, schedule: Q03HX027 (ip), vehicle: saline with Tween-80): 96 % of control | T/C (endpoint: median survival time, dose: 125.0 mg/kg/injection, schedule: Q01DX009 (ip), vehicle: saline with Tween-80): 113 % of control | T/C (endpoint: median survival time, dose: 133.0 mg/kg/injection, schedule: Q03HX027 (ip), vehicle: saline with Tween-80): 103 % of control | T/C (endpoint: median survival time, dose: 250.0 mg/kg/injection, schedule: Q01DX009 (ip), vehicle: saline with Tween-80): 116 % of control | T/C (endpoint: median survival time, dose: 266.0 mg/kg/injection, schedule: Q03HX027 (ip), vehicle: saline with Tween-80): 155 % of control

CCCCCCCC(=O)Oc1ccc(N=Nc2ccc(OCC)cc2)cc1
T/C [1]: 93 % of control | T/C [2]: 95 % of control | T/C [3]: 90 % of control | T/C [4]: 95 % of control | T/C (endpoint: mean survival time, dose: 400.0 mg/kg/injection, schedule: Q01DX009 (ip), vehicle: saline with Tween-80): 98 % of control | T/C [5]: 89 % of control

CCCCC1(C2CCCC2)NC(C)(C)CC(C)O1 (stereo not drawn)
T/C (endpoint: mean survival time, dose: 100.0 mg/kg/injection, schedule: Q04DX003 (ip), vehicle: saline): 97 % of control | T/C (endpoint: mean survival time, dose: 200.0 mg/kg/injection, schedule: Q04DX003 (ip), vehicle: saline): 96 % of control | T/C (endpoint: mean survival time, dose: 400.0 mg/kg/injection, schedule: Q04DX003 (ip), vehicle: saline): 89 % of control

O=C(NCCCl)Nc1ccccc1Cl
T/C [6]: 90 % of control | T/C [7]: 94 % of control | T/C [8]: 98 % of control

O=[N+]([O-])c1ccc2ccccc2c1-c1c([N+](=O)[O-])ccc2ccccc12
T/C [9]: 92 % of control | T/C [1]: 90 % of control | T/C [2]: 93 % of control | T/C [3]: 90 % of control | T/C [4]: 87 % of control

CC(=O)CS(=O)(=O)CC(N)=O
T/C (endpoint: mean survival time, dose: 100.0 mg/kg/injection, schedule: Q01DX001 (ip), vehicle: saline sonified): 96 % of control | T/C (endpoint: mean survival time, dose: 200.0 mg/kg/injection, schedule: Q01DX001 (ip), vehicle: saline sonified): 96 % of control | T/C (endpoint: mean survival time, dose: 400.0 mg/kg/injection, schedule: Q01DX001 (ip), vehicle: saline sonified): 97 % of control

Clc1nc2ccccc2nc1CI
T/C [10]: 100 % of control

CN/N=C/c1ccc(O)c(OC)c1
T/C [1]: 91 % of control | T/C [3]: 87 % of control

CC1(C)C2CCC1(CS(=O)(=O)O)C(=O)C2.[Ag] (stereo not drawn)
T/C [10]: 96 % of control

O=C(/C=C\c1ccccc1)c1ccc(Cl)cc1
T/C (endpoint: mean survival time, dose: 100.0 mg/kg/injection, schedule: Q01DX001 (ip), vehicle: other): 90 % of control | T/C (endpoint: mean survival time, dose: 200.0 mg/kg/injection, schedule: Q01DX001 (ip), vehicle: other): 92 % of control | T/C (endpoint: mean survival time, dose: 400.0 mg/kg/injection, schedule: Q01DX001 (ip), vehicle: other): 88 % of control

O=S(=O)(Nc1cccc(NS(=O)(=O)c2ccccc2)n1)c1ccccc1
T/C [2]: 92 % of control | T/C [4]: 102 % of control | T/C [5]: 92 % of control

CCOC(=O)c1c2c3c(c(Br)ccc3n(C)c1=O)C(=O)c1ccccc1-2
T/C (endpoint: mean survival time, dose: 12.5 mg/kg/injection, schedule: Q01DX009 (ip), vehicle: saline with Tween-80): 98 % of control | T/C (endpoint: mean survival time, dose: 25.0 mg/kg/injection, schedule: Q01DX009 (ip), vehicle: saline with Tween-80): 96 % of control | T/C [9]: 98 % of control

CN(C)N=Nc1cccc(Cl)c1
T/C (endpoint: mean survival time, dose: 79.0 mg/kg/injection, schedule: Q01DX009 (ip), vehicle: Klucel (hydroxypropylcellulose) (HPC)): 111 % of control | T/C (endpoint: mean survival time, dose: 118.0 mg/kg/injection, schedule: Q01DX009 (ip), vehicle: Klucel (hydroxypropylcellulose) (HPC)): 108 % of control | T/C (endpoint: mean survival time, dose: 177.0 mg/kg/injection, schedule: Q01DX009 (ip), vehicle: Klucel (hydroxypropylcellulose) (HPC)): 123 % of control | T/C (endpoint: mean survival time, dose: 266.0 mg/kg/injection, schedule: Q01DX009 (ip), vehicle: Klucel (hydroxypropylcellulose) (HPC)): 108 % of control

Cc1ccc(S(=O)(=O)NN2C(=O)c3ccccc3C2=O)cc1
T/C (endpoint: mean survival time, dose: 25.0 mg/kg/injection, schedule: Q04DX002 (ip), vehicle: saline with Tween-80): 96 % of control | T/C (endpoint: mean survival time, dose: 50.0 mg/kg/injection, schedule: Q04DX002 (ip), vehicle: saline with Tween-80): 96 % of control | T/C (endpoint: mean survival time, dose: 100.0 mg/kg/injection, schedule: Q04DX002 (ip), vehicle: saline with Tween-80): 100 % of control | T/C (endpoint: mean survival time, dose: 200.0 mg/kg/injection, schedule: Q04DX002 (ip), vehicle: saline with Tween-80): 96 % of control

CC([NH-])Cc1ccccc1.CC([NH-])Cc1ccccc1.[Cl][Pt+2][Cl] (stereo not drawn)
T/C (endpoint: mean survival time, dose: 3.13 mg/kg/injection, schedule: Q04DX003 (ip), vehicle: distilled water + Tween-80): 96 % of control | T/C (endpoint: mean survival time, dose: 6.25 mg/kg/injection, schedule: Q04DX003 (ip), vehicle: distilled water + Tween-80): 96 % of control | T/C (endpoint: mean survival time, dose: 12.5 mg/kg/injection, schedule: Q04DX003 (ip), vehicle: distilled water + Tween-80): 96 % of control | T/C (endpoint: mean survival time, dose: 25.0 mg/kg/injection, schedule: Q04DX003 (ip), vehicle: distilled water + Tween-80): 86 % of control | T/C (endpoint: mean survival time, dose: 50.0 mg/kg/injection, schedule: Q04DX003 (ip), vehicle: distilled water + Tween-80): 86 % of control | T/C (endpoint: mean survival time, dose: 100.0 mg/kg/injection, schedule: Q04DX003 (ip), vehicle: distilled water + Tween-80): 96 % of control | T/C (endpoint: mean survival time, dose: 200.0 mg/kg/injection, schedule: Q04DX003 (ip), vehicle: distilled water + Tween-80): 89 % of control

CCC(C)C(=O)c1ccccc1 (stereo not drawn)
T/C (endpoint: mean survival time, dose: 50.0 mg/kg/injection, schedule: Q01DX001 (ip), vehicle: saline with Tween-80): 100 % of control | T/C [6]: 95 % of control | T/C [7]: 100 % of control

CC1C(=O)C(Br)CC2C1(C)CCC1C2(C)CCC2(C)C3CC(C)(C)CCC3(C)CCC12C (stereo not drawn)
T/C [11]: 97 % of control | T/C [12]: 97 % of control | T/C [13]: 97 % of control

CCCNCC(=O)O[C@]1(CC)C(=O)OCc2c1cc1n(c2=O)Cc2cc3ccccc3nc2-1
T/C (endpoint: median survival time, dose: 7.5 mg/kg/injection, schedule: Q04DX002 (ip), vehicle: saline): 112 % of control | T/C (endpoint: median survival time, dose: 30.0 mg/kg/injection, schedule: Q04DX002 (ip), vehicle: saline): 159 % of control and 204 % of control | T/C (endpoint: median survival time, dose: 60.0 mg/kg/injection, schedule: Q04DX002 (ip), vehicle: saline): 116 % of control and 106 % of control

Nc1nc2c(ncn2-c2ccc(OCCNC(=O)Nc3ccc(S(=O)(=O)F)cc3)cc2)c(=O)[nH]1
T/C [6]: 95 % of control | T/C [7]: 94 % of control | T/C [8]: 94 % of control

Cl
T/C (endpoint: mean survival time, dose: 6.25 mg/kg/injection, schedule: Q01DX009 (ip), vehicle: saline sonified): 103 % of control | T/C (endpoint: mean survival time, dose: 6.25 mg/kg/injection, schedule: Q04DX003 (ip), vehicle: saline with Tween-80): 100 % of control | T/C (endpoint: mean survival time, dose: 12.5 mg/kg/injection, schedule: Q01DX009 (ip), vehicle: saline sonified): 101 % of control | T/C [14]: 98 % of control | T/C (endpoint: mean survival time, dose: 25.0 mg/kg/injection, schedule: Q01DX009 (ip), vehicle: saline sonified): 106 % of control | T/C [15]: 98 % of control

C/C(=N\NC(N)=S)c1ccc2cc3c(cc2c1)OCO3
T/C (endpoint: mean survival time, dose: 75.0 mg/kg/injection, schedule: Q01DX001 (ip), vehicle: saline): 119 % of control

O=CC1C(=O)Nc2ccccc21 (stereo not drawn)
T/C [9]: 96 % of control | T/C [1]: 96 % of control | T/C [3]: 104 % of control

CN(C)c1ncnc2c1ncn2-c1cccc(-n2cnc3c(N(C)C)ncnc32)c1
T/C (endpoint: mean survival time, dose: 1.25 mg/kg/injection, schedule: Q01DX005 (ip), vehicle: other): 103 % of control | T/C (endpoint: mean survival time, dose: 2.5 mg/kg/injection, schedule: Q01DX005 (ip), vehicle: other): 88 % of control | T/C (endpoint: mean survival time, dose: 5.0 mg/kg/injection, schedule: Q01DX005 (ip), vehicle: other): 92 % of control | T/C (endpoint: mean survival time, dose: 10.0 mg/kg/injection, schedule: Q01DX005 (ip), vehicle: other): 92 % of control | T/C (endpoint: mean survival time, dose: 20.0 mg/kg/injection, schedule: Q01DX005 (ip), vehicle: other): 88 % of control

Cc1cc(N2CCC(N3CCCC3)CC2)nc(/N=C(\N)Nc2ccc(Cl)c(Cl)c2)n1
T/C [14]: 98 % of control | T/C [15]: 101 % of control | T/C (endpoint: mean survival time, dose: 50.0 mg/kg/injection, schedule: Q04DX003 (ip), vehicle: saline with Tween-80): 86 % of control

CC(=O)c1cc(-c2ccccc2)nc2c(Cl)cc(Cl)cc12
T/C [11]: 102 % of control | T/C [12]: 91 % of control | T/C [13]: 103 % of control
